Measurements: patent US12053480B2, “Methods and pharmaceutical compositions for treating peripheral demyelinating diseases” (INSERM (INSTITUT NATIONAL DE LA SANTE ET DE LA RECHERCHE …, priority 2015, dated 2024)
“Also recorded” adds a separate entry of the source.

Tests used:
VDAC1 = target: T1, VDAC1 (Mus musculus, UniProt Q60932); assay: Cytoplasmic calcium imaging (GCaMP2, multiphoton) in mSC of mouse sciatic nerve; assay type: in vivo
T1 construct: strongly expressed in mSC mitochondria; from tissue; host or cells: myelinating Schwann cells (mSC) of the sciatic nerve of living mice (wild type; db/db and +/db in A10)
T1 sequence (Q60932 14-296): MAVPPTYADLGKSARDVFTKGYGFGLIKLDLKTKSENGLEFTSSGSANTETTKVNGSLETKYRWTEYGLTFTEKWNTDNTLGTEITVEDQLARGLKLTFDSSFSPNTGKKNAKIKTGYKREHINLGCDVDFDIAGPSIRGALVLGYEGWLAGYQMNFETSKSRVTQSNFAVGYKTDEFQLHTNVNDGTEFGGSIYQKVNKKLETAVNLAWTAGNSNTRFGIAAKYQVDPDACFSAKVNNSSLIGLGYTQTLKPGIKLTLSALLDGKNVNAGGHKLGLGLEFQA
Procedure: Mice were anesthetized with isoflurane inhalation and placed under a Stemi2000 microscope (Zeiss). Incision area was shaved and cleaned using betadine solution. After incision, the gluteus superficialis and biceps femoris muscles were separated to reveal the cavity traversed by the sciatic nerve. The nerve was lift out using spatula and a thin glass needle filled with viral solution (8 μl) was introduced into the nerve with a micromanipulator. This solution was injected over 30 min with short pressure pulses using a Picospritzer III (Parker Hannifin) coupled to a pulse generator. After injection, the nerve was replaced into the cavity, the muscles were readjusted, and the wound was closed using clips (for further details see Gonzalez et al., 2014^3).
TRO19622 drug (Tocris bioscience, Ref. 2906) was diluted in ethanol to 20 mM and then, the solution was diluted in sterile PBS to 20 μM. TRO19622 treatments were realized by 3 mg/kg intraperitoneal (IP) injections of 20 mM solution or by intra sciatic nerve injections of 2 μl of drug solution 2 μM using a Hamilton syringe or a glass needle in sterile conditions 30 minutes before multiphoton image acquisitions or immunohistochemistry and demyelination studies respectively. Methyl jasmonate drug (Sigma-Aldrich, Ref. 392707) was diluted in 1 ml of sterile PBS to 1M or 3M. Methyl jasmonate treatments were realized by intra sciatic nerve injections of 1 μl of drug solution using a glass needle and micromanipulator in sterile conditions following the same virus injections procedure (see in vivo virus injection in the sciatic nerve method) two hours before multiphoton image acquisition. […] All drug concentrations were previously evaluated by Bordet et al, 2007^5; Goldin et al, 2008^6; Sharov et al, 2007^7.
First injected mouse was anesthetized with 5% of isoflurane a 1.5% of oxygen into the anesthesia system box (World Precision Instruments, Ref. EZ-B800) for 5 minutes. Anesthesia controls were realized^8. Then, mouse was placed in anesthesia mask and the incision area was shaved and cleaned with betadine and ethanol 70% solution. Incision was realized using a scalpel and the skin was retracted using forceps in order to expose the gluteus superficialis and bleeps femoris muscles. Next, the connective tissue that connects both muscles was cut and the sciatic nerve was gently lifted out using a spatula. A flexible bridge was slide below sciatic nerve and it was placed into a plastic first pool fixed to the bridge. Mouse was placed under the multiphoton microscope, the bridge was fixed using magnetic brackets to avoid physiological movement and mouse legs were fixed using clippers. Microscope dark box temperature is controlled to 37° C. during all time-lapse imaging. Finally, a second pool was fixed to the first pool using a drop of agarose low melting 3% (Promega, Ref. V2111) in Leibovitz's L15 medium (Gibco Life Technologies) and filled with deionized water to immerse the objectives 20× or 63× (Carl Zeiss Microscopy).
All time-lapse images were obtained with a multiphoton microscope Zeiss LSM 7 MP OPO. Mitochondria motility images were acquired by time-lapse recording of one image every five minutes during five hours at 920 nm. GCaMP2 and SypHer probe images were acquired by time-lapse recording of one image every fifteen minutes during five hours at 985 nm. Images were acquired to constant 1% of laser intensity to 100 msec of acquisition time with 512×512 resolution and 10 images of z-stack of 20 μm. Images were saved in Zeiss .czi format and processed using Image J program. For further details see Gonzalez et al., 201X^8
To characterize mitochondria physiology during the demyelination process we combined two in vivo methods. We used the nerve crush model to reliably induce demyelination in the mouse sciatic nerve and a viral approach^19 allowing the expression of different fluorescent probes selectively into mitochondria of myelinating Schwann cells (mSC) in mouse sciatic nerve. […]

CMT1A rats = assay: Behavioral motor tests (rotarod, grip, CatWalk) in CMT1A rats; assay type: in vivo, rat
Procedure: (§1) […] Mice and rats were first given a pretraining trial of two days to familiarize them with the rotating rod. For control and diabetic mice latency to fall was measured at fixed speed 10 rpm over a 180 s time as a cut-off. No acceleration testing was performed for mice. For control and CMT1A rats latency to fall and maximum rpm (revolutions per minute) were measured at accelerated speed. […] Each animal underwent three trials a day. For each day, data were averaged for each animal (values from the three trials), normalized according to animal weight and then averaged for each treated group.
Detailed analysis of gait was performed on free-walking 16 weeks old diabetic mice and 12 weeks old CMT1A rats using the CatWalk method (CatWalk XT 10.5, Noldus Information Technology) during PBS or TRO19622 treatment. The runs were analyzed when the speed of crossing was constant and homogenous. At least three compliant runs were analyzed for each animal Data were averaged per animal, normalized according to animal weight and then per treated group. The resulting data provided quantitative parameters and qualitative walking patterns.
(§2) Neuromuscular strength of diabetic mice and CMT rats was assessed in standardized grip strength tests for front, hind and all limbs. All limbs grip strength was measured by rat supporting on the metal grid and pulling the animal's tail toward a horizontal grid connected to a gauge. Front and hind limb grip strength were measured by supporting the forelimbs or hindlimbs respectively and pulling the animal's tail toward a horizontal T-bar connected to a gauge. The maximum force (measured in newtons) exerted onto the T-bar or grid before the animals lost grip was recorded, and the mean of 3 repeated measurements was calculated. All data were normalized according to animal weight.
Finally, we studied the neuromuscular performance of CMT1A and control rats using behavioral motor tests. […] Moreover, using catwalk test we observed a decrease of paw time stand (FIG. 2B), hind paw distance (FIG. 2C) and an increase of paw print area (FIG. 2D). […] Therefore inhibiting mitochondrial calcium release through VDAC1 opens a major avenue toward the treatment of human CMT1A.

diabetic (db/db) mice = assay: Behavioral tests (rotarod, grip, CatWalk) in diabetic mice; assay type: in vivo, mouse
Procedure: as §1
[…] The runs were analyzed when the speed of crossing was constant and homogenous. At least three compliant runs were analyzed for each animal Data were averaged per animal, normalized according to animal weight and then per treated group. The resulting data provided quantitative parameters and qualitative walking patterns.
as §2
Finally, although the obesity of db/db diabetic mice hinders functional motor tests, we evaluated their neuromuscular performances during drug treatment using rotarod, grip and Catwalk tests. […] Rotarod and grip strength recoveries were not due to a reduced weight as no change in mice weight was observed during treatment.

[1] = CMT1A rats treated for one month

SMILES: CC(C)CCC[C@@H](C)[C@H]1CC[C@H]2[C@@H]3CCC4=C/C(=N\O)CC[C@]4(C)[C@H]3CC[C@]12C [TRO19622, (NZ)—N-[(8S,9S,10R,13R,14S,17R)-10,13-dimethyl-17-[(2R)-6-methylheptan-2-yl]-1,2,6,7,8,9,11,12,14,15,16,17-dodecahydrocyclopenta[a]phenanthren-3-ylidene]hydroxylamine]
- part of the calcium appearing in the cytoplasm after nerve crush that is not abolished (non-mitochondrial origin) (VDAC1; after nerve crush with VDAC1 silenced or blocked): 13%
- presence of cytoplasmic calcium in mSC after crush (VDAC1; cytoplasmic GCaMP2, after nerve crush): strong reduction
- grip strength (CMT1A rats; [1]): significant increase
- latency on accelerating rotarod (CMT1A rats; [1]): significant increase
- effects on demyelination, g-ratio and behavioral motor tests after stopping the treatment (CMT1A rats; CMT1A rats, 2 months after stopping the treatment): disappeared; also recorded: did not last
- hind paw distance (CMT1A rats; CMT1A rats, catwalk test): decrease
- paw print area (CMT1A rats; CMT1A rats, catwalk test): increase
- paw time stand (CMT1A rats; CMT1A rats, catwalk test): decrease
- Catwalk test parameters (diabetic (db/db) mice): no change
- myelin thickness, nerve conduction velocity and neuromuscular defects (all these parameters) (diabetic (db/db) mice): steadily improve
- effects on MAPK activation, nerve structure and neuromuscular performance after stopping the treatment (diabetic (db/db) mice; 2 months after stopping the treatment): did not last
- grip strength (diabetic (db/db) mice; 20 days after treatment): significant increase
- rotarod latency (diabetic (db/db) mice; 20 days after treatment): significant increase
